From patent publication US7605280B2, “Anthraquinone and its derivatives” (Biostatus Limited, priority 1998, dated 2009)

System: viable HL60 cells
Experiment: CLSM analysis of nuclear fluorescence in viable cells
Format: cell-based, human
Conditions: 10 μM for 1 h
Excerpt: The system used was a Leica TCS 4D (LaserTechnik Gmbh, Germany) scanner coupled to a Leitz DM R microscope and operating with an Ominchrome argon/krypton laser. The laser provided emission lines at 488, 568 and 647 nm with variable power. Coverslip cultures were washed briefly in PBS, mounted in inverted positions on glass slides, the coverslips being supported at the edges by a piping of petroleum jelly to prevent the cells from being compressed. The slides were examined immediately using ×100 or ×40 oil immersion objective lenses with mid-range pinhole and photomultiplier gain settings. Excitation/emission wavelengths for DRAQ5, fluorescein and rhodamine 123 were 647 nm/>665 nm, 488 nm/>515 nm and 488 nm/>590 nm respectively. Gain settings were adjusted such that the most fluorescent drug-treated sample gave pixel intensities just below saturation. The black level/offset was adjusted to give effectively zero background (<4 for pixel value) after 16× line noise filtration of images for untreated controls. […]
Thus, FIG. 2h to k show simultaneous CLSM capture of transmission (panels h and j) and the corresponding far red/low infra-red fluorescence (panels i and […] respectively) images of viable HL60 cells exposed to either 10 μM DRAQ5 or 10 μM DRAQ5N for 1 h. • 1. […]

CN(C)CCNc1ccc(O)c2c1C(=O)c1c(O)ccc(NCCN(C)C)c1C2=O [DRAQ5]
integrated nuclear fluorescence intensity per nucleus section, DRAQ5 relative to DRAQ5N-treated cells: approximately 10 fold
